The first test has as its target T1, 3-hydroxyacyl-CoA dehydrogenase activity of multi-active enzyme (Pseudomonas fragi, UniProt P28793).
T1 construct: Crude enzyme was prepared from microbial cells of Pseudomonas fragi B-0771; endogenous in cells; host or cells: Pseudomonas fragi B-0771 FERM-P No. 5701 (enzyme extracted with lysozyme and purified from its own cells, not recombinant)
In words: Substrate specificity of 3-hydroxyacyl-CoA dehydrogenase activity. The format is biochemical, Pseudomonas fragi B-0771. The note with it: 3-hydroxyacyl-CoA used as substrate of 3-hydroxyacyl-CoA dehydrogenase activity. As to the method:
(§1) The enzyme solution (50 μl) was added to the above reaction mixture, which was preincubated at 27° C. for 2 minutes, and the mixture was incubated at 37° C. for 10 minutes. 0.5% sodium dodecyl sulfate (2.0 ml) was added to stop the reaction and the absorbency was measured at 550 nm (ΔA550) One unit (1 U) is defined as the amount of enzyme which generates 1 μmole of reduced NAD in one minute. Enzyme activity is defined by the following equation: [formula] (c) Assay method of 3-ketoacyl-CoA thiolase activity:
3-hydroxyacyl-CoA dehydrogenase activity was measured by using the following embodiments of 3-hydroxyacyl-CoA: […]
T1 sequence (P28793 whole entry): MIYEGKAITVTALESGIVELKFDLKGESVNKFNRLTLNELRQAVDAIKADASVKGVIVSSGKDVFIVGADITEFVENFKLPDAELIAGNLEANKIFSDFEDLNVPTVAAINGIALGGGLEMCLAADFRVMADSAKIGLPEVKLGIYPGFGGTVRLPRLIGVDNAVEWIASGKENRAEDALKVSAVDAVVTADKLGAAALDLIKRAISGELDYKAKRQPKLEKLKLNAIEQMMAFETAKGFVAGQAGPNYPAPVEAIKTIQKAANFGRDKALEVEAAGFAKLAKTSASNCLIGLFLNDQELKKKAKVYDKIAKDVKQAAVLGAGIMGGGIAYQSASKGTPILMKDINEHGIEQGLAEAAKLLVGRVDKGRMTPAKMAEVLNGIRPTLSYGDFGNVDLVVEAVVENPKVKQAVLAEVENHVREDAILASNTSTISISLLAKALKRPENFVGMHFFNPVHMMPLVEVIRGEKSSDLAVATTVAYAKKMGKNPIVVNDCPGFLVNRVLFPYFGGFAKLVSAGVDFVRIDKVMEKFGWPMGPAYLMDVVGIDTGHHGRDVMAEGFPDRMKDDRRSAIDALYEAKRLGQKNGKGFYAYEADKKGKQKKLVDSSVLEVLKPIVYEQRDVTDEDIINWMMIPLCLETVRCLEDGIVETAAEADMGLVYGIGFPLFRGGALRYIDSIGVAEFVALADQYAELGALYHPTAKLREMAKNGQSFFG
T1 sequence (P28790 whole entry partner): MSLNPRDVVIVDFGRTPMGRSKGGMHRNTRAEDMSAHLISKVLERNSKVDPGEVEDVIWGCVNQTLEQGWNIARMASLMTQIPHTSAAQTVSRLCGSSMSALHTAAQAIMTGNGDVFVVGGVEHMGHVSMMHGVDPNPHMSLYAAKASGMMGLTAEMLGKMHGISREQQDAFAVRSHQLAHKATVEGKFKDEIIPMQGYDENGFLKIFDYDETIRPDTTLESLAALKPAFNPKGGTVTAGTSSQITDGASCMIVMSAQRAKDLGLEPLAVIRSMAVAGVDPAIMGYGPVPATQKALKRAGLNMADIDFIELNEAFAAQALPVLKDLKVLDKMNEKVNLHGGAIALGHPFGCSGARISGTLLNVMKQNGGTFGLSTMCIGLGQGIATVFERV
As to `CCCCCCCCCCCCCCCCCC(O)CC(=O)SCCNC(=O)CCNC(=O)[C@H](O)C(C)(C)COP(=O)(O)OP(=O)(O)OC[C@H]1O[C@@H](n2cnc3c(N)ncnc32)[C@H](O)[C@@H]1OP(=O)(O)O` (some centres unmarked) [3-hydroxyarachidoyl-CoA], the Relative activity was determined as 9.5%. Regarding `CCCC(O)CC(=O)SCCNC(=O)CCNC(=O)[C@H](O)C(C)(C)COP(=O)(O)OP(=O)(O)OC[C@H]1O[C@@H](n2cnc3c(N)ncnc32)[C@H](O)[C@@H]1OP(=O)(O)O` (some centres unmarked) [3-hydroxycaproyl-CoA], the Relative activity came out at 56.5%. Take `CCCCCCCC(O)CC(=O)SCCNC(=O)CCNC(=O)[C@H](O)C(C)(C)COP(=O)(O)OP(=O)(O)OC[C@H]1O[C@@H](n2cnc3c(N)ncnc32)[C@H](O)[C@@H]1OP(=O)(O)O` (some centres unmarked) [3-hydroxycapryl-CoA]: the Relative activity is reported as 99.0%. As for `CCCCCC(O)CC(=O)SCCNC(=O)CCNC(=O)[C@H](O)C(C)(C)COP(=O)(O)OP(=O)(O)OC[C@H]1O[C@@H](n2cnc3c(N)ncnc32)[C@H](O)[C@@H]1OP(=O)(O)O` (some centres unmarked) [3-hydroxycaprylyl-CoA], the Relative activity worked out at 88.1%.

Consider `CCCCCCCCCC(O)CC(=O)SCCNC(=O)CCNC(=O)[C@H](O)C(C)(C)COP(=O)(O)OP(=O)(O)OC[C@H]1O[C@@H](n2cnc3c(N)ncnc32)[C@H](O)[C@@H]1OP(=O)(O)O` (some centres unmarked) [3-hydroxylauryl-CoA], for which the Relative activity worked out at 100.0%. Regarding `CC/C=C\C/C=C\C/C=C\CCCCCC(O)CC(=O)SCCNC(=O)CCNC(=O)[C@H](O)C(C)(C)COP(=O)(O)OP(=O)(O)OC[C@H]1O[C@@H](n2cnc3c(N)ncnc32)[C@H](O)[C@@H]1OP(=O)(O)O` (some centres unmarked) [3-hydroxylinolenyl-CoA], the Relative activity turned out to be 99.0%. On the same count and under the same terms, the figure for `CCCCCCCCCCCC(O)CC(=O)SCCNC(=O)CCNC(=O)[C@H](O)C(C)(C)COP(=O)(O)OP(=O)(O)OC[C@H]1O[C@@H](n2cnc3c(N)ncnc32)[C@H](O)[C@@H]1OP(=O)(O)O` (some centres unmarked) [3-hydroxymyristoyl-CoA] is 98.0%; for `CCCCCCCC/C=C\CCCCCC(O)CC(=O)SCCNC(=O)CCNC(=O)[C@H](O)C(C)(C)COP(=O)(O)OP(=O)(O)OC[C@H]1O[C@@H](n2cnc3c(N)ncnc32)[C@H](O)[C@@H]1OP(=O)(O)O` (some centres unmarked) [3-hydroxyoleyl-CoA] it is 57.5%. `CCCCCCCCCCCCCC(O)CC(=O)SCCNC(=O)CCNC(=O)[C@H](O)C(C)(C)COP(=O)(O)OP(=O)(O)OC[C@H]1O[C@@H](n2cnc3c(N)ncnc32)[C@H](O)[C@@H]1OP(=O)(O)O` (some centres unmarked) [3-hydroxypalmitoyl-CoA]: the Relative activity is reported as 75.5%. The same measure, in the same setting: the figure for `CCCCCCCCCCCCCCCC(O)CC(=O)SCCNC(=O)CCNC(=O)[C@H](O)C(C)(C)COP(=O)(O)OP(=O)(O)OC[C@H]1O[C@@H](n2cnc3c(N)ncnc32)[C@H](O)[C@@H]1OP(=O)(O)O` (some centres unmarked) [3-hydroxystearyl-CoA] is 30.5%.

A further test addresses T1, 3-hydroxyacyl-CoA dehydrogenase activity of multi-active enzyme. Kind of test: Effect of surface active agents on 3-hydroxyacyl-CoA dehydrogenase activity. The format is biochemical, Pseudomonas fragi B-0771. Particulars: 0.1% surface active agent; control 100; 10 min. As to the method: as §1
(10) Effect of surface active agents:
The effect of surface active agents was measured on 3-hydroxyacyl-CoA dehydrogenase activity.
Regarding Triton X-100, the Relative activity is given as 96%.

For the compound laurylbenzene sulfonate, the Relative activity stood at 0%.

The test is the same for the next values; noted with them: 10 min; 0.1% surface active agent; control 100; read-out: Relative activity.
Regarding `CCCCCCCCCCCCCCCC[N+](C)(C)C` [cetyltrimethylammonium chloride], the activity at 0.1 % turned out to be 0%. On to `C[C@H](CCC(=O)O)[C@H]1CC[C@H]2[C@@H]3CC[C@@H]4C[C@H](O)CC[C@]4(C)[C@H]3C[C@H](O)[C@]12C` [sodium deoxycholate], for which the activity at 0.1 % stood at 2%.

`CCCCCCCCCCCCOS(=O)(=O)[O-].[Na+]` [sodium lauryl sulfate]: the activity at 0.1 % worked out at 0%.

Another test has the same target. In words: Effect of metal ions on 3-hydroxyacyl-CoA dehydrogenase activity. In kind it is biochemical, Pseudomonas fragi B-0771. Particulars: 1 mM metal ion; control 100; 10 min. The protocol:
as §1
(9) Effect of metal ions:
The effect of metal ions was measured on 3-hydroxyacyl-CoA dehydrogenase activity.
For `[Ba+2].[Cl-].[Cl-]` [BaCl2], the Relative activity is listed as 106%. On the same count and under the same terms, for `[Ca+2].[Cl-].[Cl-]` [CaCl 2] the value was 113%; for `[Cl-].[Cl-].[Co+2]` [CoCl2], 34%. The same measure, in the same setting: for `[Cl][Cu][Cl]` [CuCl2] the value was 12%; for `[Cl-].[Cl-].[Mg+2]` [MgCl2], 113%; for `[Cl][Mn][Cl]` [MnCl2], 32%. As to `[Cl][Ni][Cl]` [NiCl2], the Relative activity is 95%. Still for that read-out and setting: the figure for `[Cl-].[Cl-].[Zn+2]` [ZnCl2] is 25%.
